Experiment [1] deals with porcine tracheal β3Gal-transferase activity. To be noted: acceptor substrate; read-out: apparent Km, porcine β3Gal-transferase activity; cited from earlier work.
Another experiment addresses T1, β3Gal-T5 (Homo sapiens, UniProt Q9Y2C3, M85T).
T1 construct: Full length enzymes were assayed with 1% Triton CF54 homogenates of washed cells; made in house; host or cells: Sf9 cells, baculovirus (pVL1193)
T1 sequence (Q9Y2C3 1-310 M85T): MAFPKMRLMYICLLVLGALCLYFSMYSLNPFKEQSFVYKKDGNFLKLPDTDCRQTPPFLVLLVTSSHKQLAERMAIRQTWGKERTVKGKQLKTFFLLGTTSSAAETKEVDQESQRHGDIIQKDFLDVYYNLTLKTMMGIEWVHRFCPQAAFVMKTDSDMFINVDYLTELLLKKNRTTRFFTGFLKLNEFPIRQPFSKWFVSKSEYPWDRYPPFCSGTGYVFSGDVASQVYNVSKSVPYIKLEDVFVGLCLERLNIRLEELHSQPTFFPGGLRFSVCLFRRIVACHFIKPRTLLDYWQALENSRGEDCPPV
As to the kind of experiment: Activity of full coding construct of β3Gal-T5 expressed in Sf9 cells (Triton CF54 homogenates or media). The format is biochemical. To be noted: 60 hrs post-infection, acceptor 20 mM. The source says:
PCR product was cloned into the BamHI site of pAcGP67B (Pharmingen). […] This PCR product was cloned into the BamHI site of pVL1193 (Pharmingen). Both soluble and full length constructs were fully sequenced to confirm fidelity. Plasmids […]5-full were co-transfected with Baculo-GoldTM DNA (Pharmingen) as described previously (Bennett, […]. and Clausen, H. cDNA cloning and expression of a novel human UDP-N-acetyl-alpha-D-galactosamine. Polypeptide N-acetyl-galactosaminyl-transferase, GalNAc-T3. J. Biol. Chem. 271:17006-17012, 1996). Recombinant Baculo-virus were obtained after two successive amplifications in Sf9 cells grown in serum-containing medium, and titers of virus were estimated by titration in 24-well plates with monitoring of enzyme activities. […] J. Biol. […] J. Biol. […] Polypeptide N-acetyl-galactosaminyl-transferase, GalNAc-T3. J. Biol. Chem. 271:17006-17012, 1996). For large scale expression amplified virus was used to infect High FiveTM cells grown in serum-free media (Invitrogen) in upright roller bottles shaking at 140 rpm and 27° C. The kinetic properties were determined with partially purified, secreted forms of the enzymes. […] Reaction products were quantified by Dowex-1 chromatography. […] The transfer of Gal was evaluated after acid precipitation by filtration through Whatman GF/C glass fibre filters. […]

In a further experiment the target is T2, β3Gal-T1 (Homo sapiens, UniProt Q9Y5Z6).
T2 construct: Full length enzymes were assayed with 1% Triton CF54 homogenates of washed cells; made in house; host or cells: Sf9 cells, baculovirus
T2 sequence (Q9Y5Z6 1-326): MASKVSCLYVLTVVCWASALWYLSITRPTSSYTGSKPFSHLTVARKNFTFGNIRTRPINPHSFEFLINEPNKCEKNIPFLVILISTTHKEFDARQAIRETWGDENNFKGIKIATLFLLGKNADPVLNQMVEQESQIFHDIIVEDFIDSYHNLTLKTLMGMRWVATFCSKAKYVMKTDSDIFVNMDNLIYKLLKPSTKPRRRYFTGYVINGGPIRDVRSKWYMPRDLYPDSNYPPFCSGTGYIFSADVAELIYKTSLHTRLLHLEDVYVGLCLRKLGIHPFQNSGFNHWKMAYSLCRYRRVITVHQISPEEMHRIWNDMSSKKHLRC
Nature of the experiment: Activity of full coding construct of β3Gal-T1 expressed in Sf9 cells (Triton CF54 homogenates or media). To be noted: 60 hrs post-infection, acceptor 20 mM. The format is biochemical.

These results are taken from patent publication US7332279B2 (Glycozym APS, priority 1999, dated 2008).

By Km is commonly meant the concentration of substrate that gives half-maximal velocity. As for `CC(=O)NC1C(OC2C(O)C(CO)OC(Oc3ccc([N+](=O)[O-])cc3)C2NC(C)=O)OC(CO)C(O)C1O` [β-D-GlcNAc-(1–3)-α-D-GalNAc-p-Nph], the Km in experiment [1] is 2400 µM.

Take `CC(=O)N[C@H]1[C@H](OCc2ccccc2)O[C@H](CO)[C@@H](O)[C@@H]1O` [β-D-GlcNAc-Bzl]: the “β3Gal-T5 full coding construct activity, Cells” value at β3Gal-T5 (1% Triton CF54 cell homogenate) amounted to 1.5 nmol/min/mL. Moreover, at β3Gal-T5 (media), the “β3Gal-T5 full coding construct activity, Media” value turned out to be 0.1 nmol/min/mL. For the same compound, on β3Gal-T1 (1% Triton CF54 cell homogenate), the “β3Gal-T1 full coding construct activity, Cells” value was 7.2 nmol/min/mL. Further, the “β3Gal-T1 full coding construct activity, Media” value at β3Gal-T1 (media) amounted to 0.2 nmol/min/mL.
